Measurements from US20230295234A1, “ANTIMICROBIAL PEPTIDOMIMETICS” (SPEXIS AG, priority 2020, published 2023).
Like-named read-outs stand apart in the source and are kept apart here. Peptide text beside a SMILES is read from it.

Experiments:
[1] = tested on: human red blood cells (hRBC); assay: Hemolysis of human red blood cells; format: cell-based
Procedure, shortened: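 Percent hemolysis is OD540 of peptide-treated supernatant relative to water-lysed cells. Each peptide was tested at 200 μg/mL against 20% (v/v) washed human erythrocytes. Incubation was 1 h at 37 °C, 300 rpm.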

[2] = tested on: Escherichia coli ATCC 25922
Procedure, shortened: (§1)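 Standardized inocula (0.5 McFarland in saline, then diluted in MHII broth to approximately 5×10^5 CFU/mL) were exposed to two-fold dilution series of each peptide in the presence of polysorbate 80 (0.002% final).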

[3] = tested on: Klebsiella pneumoniae SSI3010
Procedure, shortened: as §1

[4] = tested on: Escherichia coli MCR-1 Af 45; conditions: Mueller-Hinton broth II, 18-20 hours at 35° C.
Procedure, shortened: as §1

[5] = Mueller-Hinton broth II, 18-20 hours at 35° C.

Row | Structure (SMILES) | Hemolysis at 0.2 g/L ([1]; red cells of human, 1 h) [%] | Escherichia coli ATCC 25922 MIC ([2]; ATCC 25922) [µg/mL] | Klebsiella pneumoniae SSI3010 MIC ([3]; SSI3010) [µg/mL] | Escherichia coli MCR-1 Af 45 MIC [4] [µg/mL] | Hemolysis at 0.2 g/L ([1]; 20% hRBC, 1 h at 37° C.) [%] | Escherichia coli ATCC 25922 MIC [2, 5] [µg/mL] | Klebsiella pneumoniae SSI3010 MIC [3, 5] [µg/mL]
1 | CCCC[C@H](NC(=O)[C@H](CCCNC(=N)N)NC(=O)[C@H](CCN)NC(=O)[C@@H]1CSSC(C)(C)[C@H](NC(=O)[C@H](Cc2ccc(O)cc2)NC(=O)[C@@H](NC(=O)[C@@H](NC(=O)CN(CCN)C(=O)[C@@H](N)C(C)C)[C@@H](C)CC)[C@@H](C)CC)C(=O)N[C@@H](CC(N)=O)C(=O)N[C@@H](CCCNC(=N)N)C(=O)N[C@@H](CCN)C(=O)N[C@@H]([C@@H](C)O)C(=O)N[C@H](CCN)C(=O)N[C@@H](CCCCN)C(=O)N1)C(=O)O [Example 137] (HELM PEPTIDE1{V.[NCCN(CC(=O)[*:2])[*:1]].I.I.Y.[Pen].N.R.[Dab].T.[NCC[C@@H](N[*:1])C(=O)[*:2]].K.C.[Dab].R.[Nle]}$PEPTIDE1,PEPTIDE1,6:R3-13:R3$$$V2.0) | 0 | 0.125 | 0.25 | 0.0625 |  |  | 
2 | CCCC[C@H](NC(=O)[C@H](CCCNC(=N)N)NC(=O)[C@H](CCN)NC(=O)[C@@H]1CSSC(C)(C)[C@H](NC(=O)[C@H](Cc2ccc(O)cc2)NC(=O)[C@@H](NC(=O)[C@@H](NC(=O)[C@@H]2C[C@@H](N)CN2C(=O)[C@@H](N)C(C)C)[C@@H](C)CC)[C@@H](C)O)C(=O)N[C@@H](CC(N)=O)C(=O)N[C@@H](CCCNC(=N)N)C(=O)N[C@@H](CCN)C(=O)N[C@@H]([C@@H](C)O)C(=O)N[C@H](CCN)C(=O)N[C@@H](CCCCN)C(=O)N1)C(=O)O [Example 138] (HELM PEPTIDE1{V.[N[C@@H]1C[C@@H](C(=O)[*:2])N([*:1])C1].I.T.Y.[Pen].N.R.[Dab].T.[NCC[C@@H](N[*:1])C(=O)[*:2]].K.C.[Dab].R.[Nle]}$PEPTIDE1,PEPTIDE1,6:R3-13:R3$$$V2.0) | 0 | 0.125 | 0.25 | 0.0625 |  |  | 
3 | CC[C@H](C)[C@H](NC(=O)[C@@H](NC(=O)[C@@H]1CCCN1C(=O)[C@@H](N)C(C)C)[C@@H](C)CC)C(=O)N[C@@H](Cc1ccc(O)cc1)C(=O)N[C@H]1CSSC[C@@H](C(=O)N[C@@H](CCN)C(=O)N[C@@H](CCCNC(=N)N)C(=O)N[C@@H](CC2CCCCC2)C(=O)O)NC(=O)[C@H](CCCCN)NC(=O)[C@@H](CCN)NC(=O)[C@H]([C@@H](C)O)NC(=O)[C@H](CCN)NC(=O)[C@H](CCCNC(=N)N)NC(=O)[C@H](CC(N)=O)NC1=O [Example 139] (HELM PEPTIDE1{V.P.I.I.Y.C.N.R.[Dab].T.[NCC[C@@H](N[*:1])C(=O)[*:2]].K.C.[Dab].R.[Cha]}$PEPTIDE1,PEPTIDE1,6:R3-13:R3$$$V2.0) | 0 | 0.0625 | 0.125 | 0.0625 |  |  | 
4 | CC[C@H](C)[C@H](NC(=O)[C@@H](NC(=O)[C@@H]1CCCN1C(=O)[C@@H](N)C(C)C)[C@@H](C)CC)C(=O)N[C@@H](Cc1ccc(O)cc1)C(=O)N[C@@H]1C(=O)N[C@@H](CC(N)=O)C(=O)N[C@@H](CCCNC(=N)N)C(=O)N[C@@H](CCN)C(=O)N[C@@H]([C@@H](C)O)C(=O)N[C@H](CCN)C(=O)N[C@@H](CCCCN)C(=O)N[C@H](C(=O)N[C@@H](CCN)C(=O)N[C@@H](CCCNC(=N)N)C(=O)N[C@@H](Cc2ccc(O)cc2)C(=O)O)CSSC1(C)C [Example 140] (HELM PEPTIDE1{V.P.I.I.Y.[Pen].N.R.[Dab].T.[NCC[C@@H](N[*:1])C(=O)[*:2]].K.C.[Dab].R.Y}$PEPTIDE1,PEPTIDE1,6:R3-13:R3$$$V2.0) |  |  |  | 0.0625 | 0 | 0.0625 | 0.125
5 | CC[C@H](C)[C@H](NC(=O)[C@@H](NC(=O)[C@@H]1CCCN1C(=O)[C@@H](N)C(C)C)[C@@H](C)CC)C(=O)N[C@@H](Cc1ccc(O)cc1)C(=O)N[C@H]1CSSC(C)(C)[C@@H](C(=O)N[C@@H](CCN)C(=O)N[C@@H](CCCNC(=N)N)C(=O)N[C@@H](Cc2ccc(O)cc2)C(=O)O)NC(=O)[C@H](CCCCN)NC(=O)[C@@H](CCN)NC(=O)[C@H]([C@@H](C)O)NC(=O)[C@H](CCN)NC(=O)[C@H](CCCNC(=N)N)NC(=O)[C@H](CC(N)=O)NC1=O [Example 141] (HELM PEPTIDE1{V.P.I.I.Y.C.N.R.[Dab].T.[NCC[C@@H](N[*:1])C(=O)[*:2]].K.[Pen].[Dab].R.Y}$PEPTIDE1,PEPTIDE1,6:R3-13:R3$$$V2.0) | 0 | 0.0625 | 0.25 | 0.0625 |  |  | 
6 | CC[C@H](C)[C@H](NC(=O)[C@@H](NC(=O)[C@@H]1C[C@@H](N)CN1C(=O)[C@@H](N)C(C)C)[C@@H](C)CC)C(=O)N[C@@H](Cc1ccc(O)cc1)C(=O)N[C@H]1CSSC[C@@H](C(=O)N[C@@H](CCN)C(=O)N[C@@H](CCCNC(=N)N)C(=O)N[C@@H](Cc2ccc(O)cc2)C(=O)O)NC(=O)[C@H](CCCCN)NC(=O)[C@@H](CCN)NC(=O)[C@H]([C@@H](C)O)NC(=O)[C@H](CCN)NC(=O)[C@H](CCCNC(=N)N)NC(=O)[C@H](CC(N)=O)NC1=O [Example 142] (HELM PEPTIDE1{V.[N[C@@H]1C[C@@H](C(=O)[*:2])N([*:1])C1].I.I.Y.C.N.R.[Dab].T.[NCC[C@@H](N[*:1])C(=O)[*:2]].K.C.[Dab].R.Y}$PEPTIDE1,PEPTIDE1,6:R3-13:R3$$$V2.0) | 0 | 0.125 | 0.0625 | 0.0625 |  |  | 
7 | CC[C@H](C)[C@H](NC(=O)[C@@H](NC(=O)[C@@H]1C[C@@H](O)CN1C(=O)[C@@H](N)C(C)C)[C@@H](C)CC)C(=O)N[C@@H](Cc1ccc(O)cc1)C(=O)N[C@H]1CSSC[C@@H](C(=O)N[C@@H](CCN)C(=O)N[C@@H](CCCNC(=N)N)C(=O)N[C@@H](Cc2ccc(O)cc2)C(=O)O)NC(=O)[C@H](CCCCN)NC(=O)[C@@H](CCN)NC(=O)[C@H]([C@@H](C)O)NC(=O)[C@H](CCN)NC(=O)[C@H](CCCNC(=N)N)NC(=O)[C@H](CC(N)=O)NC1=O [Example 143] (HELM PEPTIDE1{V.[Hyp].I.I.Y.C.N.R.[Dab].T.[NCC[C@@H](N[*:1])C(=O)[*:2]].K.C.[Dab].R.Y}$PEPTIDE1,PEPTIDE1,6:R3-13:R3$$$V2.0) | 0 | 0.0625 | 0.125 | 0.03125 |  |  | 
8 | CC[C@H](C)[C@H](NC(=O)[C@@H]1CCCN1C(=O)[C@@H](N)C(C)C)C(=O)N[C@H](C(=O)N[C@@H](Cc1ccc(O)cc1)C(=O)N[C@H]1CSSC[C@@H](C(=O)N[C@@H](CCN)C(=O)N[C@@H](CCCNC(=N)N)C(=O)N[C@@H](Cc2ccc(O)cc2)C(=O)O)NC(=O)[C@H](CCCCN)NC(=O)[C@@H](CCN)NC(=O)[C@H]([C@@H](C)O)NC(=O)[C@H](CCN)NC(=O)[C@H](CCCNC(=N)N)NC(=O)[C@H](CC(N)=O)NC1=O)[C@@H](C)O [Example 144] (HELM PEPTIDE1{V.P.I.T.Y.C.N.R.[Dab].T.[NCC[C@@H](N[*:1])C(=O)[*:2]].K.C.[Dab].R.Y}$PEPTIDE1,PEPTIDE1,6:R3-13:R3$$$V2.0) | 0 | 0.0625 | 0.125 | 0.25 |  |  | 
